Measurements: patent publication US7884099B2 (priority 2007, dated 2011)
In brackets after ≈: the same amount, converted by molar mass. Like-named read-outs stand apart in the source and are kept apart here.

What was measured:
[1] = test system: S. aureus gyrA^S84L parC^S80F; assay: MIC by microbroth dilution, quinolone-resistant S. aureus gyrA S84L parC S80F; type: cell-based, Staphylococcus aureus; details: for MIC: Staphylococcus aureus, read-out: MIC S. aureus gyrA^S84L parC^S80F
Description: (§1) Representative compounds are assayed for antimicrobial activity as follows: Minimum Inhibitory Concentrations (MICs) against Staphylococcus aureus ATCC 29213, its isogenic derivative, and Escherichia coli ATCC 25922 were determined by the microbroth dilution method, as per NCCLS guidelines (National Committee for Clinical Laboratory Standards 2000).

S. aureus rpoB^H481Y = assay: MIC by microbroth dilution, rifamycin-resistant S. aureus rpoB H481Y; type: cell-based, Staphylococcus aureus; details: for MIC: Staphylococcus aureus, read-out: MIC S. aureus rpoB^H481Y
Description: as §1

[2] = test system: Escherichia coli ATCC 25922; assay: MIC by microbroth dilution, E. coli ATCC 25922; type: cell-based
Description: as §1

[3] = test system: Staphylococcus aureus ATCC 29213; assay: MIC by microbroth dilution, S. aureus ATCC 29213; type: cell-based
Description: as §1

[4] = test system: S. aureus rpoB^H481Y gyrA^S84L parC^S80F; assay: MIC by microbroth dilution, triple mutant S. aureus; type: cell-based; details: Staphylococcus aureus, read-out: MIC S. aureus rpoB^H481Y gyrA^S84L parC^S80F
Description: as §1

[5] = test system: Wild-type and Genetically-Defined Resistant Strains of Bacteria; assay: Antibacterial activity against wild-type and genetically-defined resistant strains (overall statement on Table 1); type: cell-based; details: summary of Table 1
Description: as §1

[6] = ATCC25922, read-out: MIC E. coli ATCC# 25922
[7] = ATCC29213, read-out: MIC S. aureus ATCC# 29213
[8] = ATCC25922, microbroth dilution, NCCLS, read-out: MIC E. coli ATCC# 25922
[9] = ATCC29213, wild-type, microbroth dilution, NCCLS, read-out: MIC S. aureus ATCC# 29213

SMILES	MIC [1]	MIC (S. aureus rpoB^H481Y)	MIC [2, 6]	MIC [3, 7]	MIC [4]	antibacterial activity (in words) [5]	activity against quinolone-resistant S. aureus gyrA^S84L parC^S80F (in words) ([1]; mutations in gyrase and topoisomerase IV)	MIC [2, 8]	MIC [3, 9]	activity against rifamycin-resistant S. aureus rpoB^H481Y (in words) (S. aureus rpoB^H481Y; mutation in RNA polymerase)
CO[C@H]1/C=C/O[C@@]2(C)Oc3c(C)c(O)c4c(=O)c(c5oc6cc(N7CCC(N(C)C8([C@@H]9CCN(c%10c(F)cn%11c(=O)c(C(=O)O)cc(C%12CC%12)c%11c%10C)C9)CC8)CC7)cc(O)c6nc-5c4c3C2=O)NC(=O)/C(C)=C\C=C\[C@H](C)[C@H](O)[C@@H](C)[C@@H](O)[C@@H](C)[C@H](OC(C)=O)[C@@H]1C [Example 1]	< 0.004 µg/mL	0.12 µg/mL (≈ 0.0936 µM)	0.5 µg/mL (≈ 0.39 µM)	< 0.004 µg/mL	2 µg/mL (≈ 1.56 µM)					
COc1c(N2CC[C@@H](C3(N(C)C4CCN(c5cc(O)c6nc7c8c9c%10c(C)c(O)c8c(=O)c(c-7oc6c5)NC(=O)/C(C)=C\C=C\[C@H](C)[C@H](O)[C@@H](C)[C@@H](O)[C@@H](C)[C@H](OC(C)=O)[C@H](C)[C@@H](OC)/C=C/O[C@@](C)(O%10)C9=O)CC4)CC3)C2)c(F)cc2c(=O)c(C(=O)O)cn(C3CC3)c12 [Example 2, (R)-5′-[4-[1-[1-(3-Carboxy-1-cyclopropyl-6-fluoro-8-methoxy-4-oxo-1,4-dihydro-quinoline-7-yl)-pyrrolidin-3-yl-cyclopropyl-methyl]-amino]-piperidin-1-yl]-3′-hydroxy-benzoxazinorifamycin]	0.016 µg/mL (≈ 0.0123 µM)	0.5 µg/mL (≈ 0.385 µM)	4 µg/mL (≈ 3.08 µM)	0.008 µg/mL (≈ 0.00617 µM)	4 µg/mL (≈ 3.08 µM)	potent antibacterial activity				
COc1c(N2CCN(c3cc(O)c4nc5c6c7c8c(C)c(O)c6c(=O)c(c-5oc4c3)NC(=O)/C(C)=C\C=C\[C@H](C)[C@H](O)[C@@H](C)[C@@H](O)[C@@H](C)[C@H](OC(C)=O)[C@H](C)[C@@H](OC)/C=C/O[C@@](C)(O8)C7=O)CC2)c(F)cc2c(=O)c(C(=O)O)cn(C3CC3)c12 [Example 3, 5′-[4-(3-Carboxy-1-cyclopropyl-6-fluoro-8-methoxy-4-oxo-1,4-dihydroquinolin-7-yl)-piperazin-1-yl]-3′-hydroxy-benzoxazinorifamycin]	0.008 µg/mL (≈ 0.0069 µM)	0.24 µg/mL (≈ 0.207 µM)	4 µg/mL (≈ 3.45 µM)	0.008 µg/mL (≈ 0.0069 µM)	8 µg/mL (≈ 6.9 µM)	potent antibacterial activity				
O=C(O)c1cn(C2CC2)c2cc(N3CCNCC3)c(F)cc2c1=O [ciprofloxacin, reference compound]	> 32 µg/mL	0.24 µg/mL (≈ 0.724 µM)			> 32 µg/mL		not as effective	0.008 µg/mL (≈ 0.0241 µM)	0.24 µg/mL (≈ 0.724 µM)	
CO[C@H]1/C=C/O[C@@]2(C)Oc3c(C)c(O)c4c(O)c(c(/C=N/N5CCN(C)CC5)c(O)c4c3C2=O)NC(=O)/C(C)=C\C=C\[C@H](C)[C@H](O)[C@@H](C)[C@@H](O)[C@@H](C)[C@H](OC(C)=O)[C@@H]1C [rifampin, reference compound]	0.008 µg/mL (≈ 0.00972 µM)	> 64 µg/mL			> 64 µg/mL			8 µg/mL (≈ 9.72 µM)	0.008 µg/mL (≈ 0.00972 µM)	not as effective
